Measured values: the supplement of paper PMC10307832

Experiments:
Test in all cases: relative viability (nuclei count vs DMSO), 5 days (fraction); higher = more cells survive
[1] = compound: Cc1nc(NC(=O)N2CCC[C@H]2C(N)=O)sc1-c1ccnc(C(C)(C)C(F)(F)F)c1 [Alpelisib] + CC1(C)CCC(c2ccc(Cl)cc2)=C(CN2CCN(c3ccc(C(=O)NS(=O)(=O)c4ccc(N[C@H](CCN5CCOCC5)CSc5ccccc5)c(S(=O)(=O)C(F)(F)F)c4)cc3)CC2)C1 [Navitoclax] (partner 0.5 µM)
In short: (§1)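 Values are medians from duplicate plates. Each reflects relative viability, defined as the nuclei count of treated wells over that of vehicle wells. Lung cancer cell lines in 1536-well plates were pin-tool dosed one day after seeding with one drug alone or with a fixed anchor-drug dose plus five library-drug doses (not always all listed) in √10 steps, then fixed, stained and imaged at 4× after 5 days.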

[2] = compound: COc1cccc2cc(-c3nc([C@H]4CC[C@H](C(=O)O)CC4)n4ncnc(N)c34)[nH]c12 [OSI-027] + O=C(c1cc(Cc2n[nH]c(=O)c3ccccc23)ccc1F)N1CCN(C(=O)C2CC2)CC1 [Olaparib] (partner 8 µM)
In short: as §1

[3] = compound: COc1cccc2cc(-c3nc([C@H]4CC[C@H](C(=O)O)CC4)n4ncnc(N)c34)[nH]c12 [OSI-027] + CC(=O)c1c(C)c2cnc(Nc3ccc(N4CCNCC4)cn3)nc2n(C2CCCC2)c1=O [Palbociclib] (partner 0.5 µM)
In short: as §1

[4] = compound: Cc1nc(NC(=O)N2CCC[C@H]2C(N)=O)sc1-c1ccnc(C(C)(C)C(F)(F)F)c1 [Alpelisib] + CS(=O)(=O)N1CCN(Cc2cc3nc(-c4cccc5[nH]ncc45)nc(N4CCOCC4)c3s2)CC1 [Pictilisib] (partner 1 µM)
In short: as §1

Cell Line | relative viability ([1]; first compound 0.04 µM) | relative viability ([1]; first compound 0.1265 µM) | relative viability ([1]; first compound 0.4 µM) | relative viability ([1]; first compound 1.265 µM) | relative viability ([1]; first compound 4 µM) | relative viability ([2]; first compound 0.01 µM) | relative viability ([2]; first compound 0.03162 µM) | relative viability ([2]; first compound 0.1 µM) | relative viability ([2]; first compound 0.3162 µM) | relative viability ([2]; first compound 1 µM) | relative viability ([3]; first compound 0.01 µM) | relative viability ([3]; first compound 0.03162 µM) | relative viability ([3]; first compound 0.1 µM) | relative viability ([3]; first compound 0.3162 µM) | relative viability ([3]; first compound 1 µM) | relative viability ([4]; first compound 0.04 µM) | relative viability ([4]; first compound 0.1265 µM) | relative viability ([4]; first compound 0.4 µM) | relative viability ([4]; first compound 1.265 µM) | relative viability ([4]; first compound 4 µM)
NCI-H1915 | 0.8 | 0.829 | 0.82 | 0.764 | 0.504 | 0.284 | 0.274 | 0.259 | 0.298 | 0.237 | 0.535 | 0.523 | 0.429 | 0.388 | 0.268 | 0.925 | 0.987 | 1.02 | 0.908 | 0.766
HOP-62 | 1 | 0.893 | 1.12 | 0.606 | 1.06 | 0.605 | 0.68 | 0.456 | 0.594 | 0.167 | 0.475 | 0.49 | 0.418 | 0.457 | 0.287 | 1.06 | 0.698 | 0.988 | 0.586 | 0.727
NCI-H520 | 1.02 | 0.905 | 1.07 | 1.03 | 0.822 | 0.286 | 0.313 | 0.293 | 0.216 | 0.208 | 0.204 | 0.18 | 0.22 | 0.163 | 0.145 | 0.244 | 0.316 | 0.318 | 0.304 | 0.289
COR-L23 | 0.923 | 1.02 | 1.07 | 0.789 | 0.753 | 0.377 | 0.335 | 0.208 | 0.401 | 0.279 | 0.304 | 0.3 | 0.295 | 0.255 | 0.171 | 0.744 | 0.79 | 0.865 | 0.594 | 0.636
H3255 | 0.463 | 0.47 | 0.524 | 0.384 | 0.407 | 0.595 | 0.555 | 0.588 | 0.569 | 0.409 | 0.294 | 0.309 | 0.303 | 0.271 | 0.321 | 0.409 | 0.516 | 0.533 | 0.356 | 0.411
NCI-H1993 | 1.11 | 0.879 | 0.874 | 0.659 | 0.702 | 1.03 | 0.894 | 0.902 | 0.653 | 0.522 | 0.613 | 0.491 | 0.414 | 0.432 | 0.381 | 0.825 | 0.803 | 0.767 | 0.696 | 0.918
NCI-H1792 | 0.619 | 0.582 | 0.702 | 0.514 | 0.336 | 0.33 | 0.296 | 0.247 | 0.354 | 0.142 | 0.578 | 0.451 | 0.623 | 0.604 | 0.308 | 0.227 | 0.306 | 0.309 | 0.253 | 0.206
SW 1573 | 0.903 | 0.879 | 1.03 | 0.768 | 0.585 | 0.485 | 0.513 | 0.398 | 0.444 | 0.293 | 0.388 | 0.389 | 0.356 | 0.333 | 0.216 | 0.498 | 0.506 | 0.557 | 0.459 | 0.352
NCI-H2085 | 1.2 | 1.06 | 1.14 | 0.914 | 1.11 | 0.751 | 0.771 | 0.726 | 0.763 | 0.633 | 0.463 | 0.515 | 0.458 | 0.428 | 0.446 | 0.503 | 0.549 | 0.518 | 0.427 | 0.426
EPLC-272H | 1.16 | 1.05 | 1.19 | 0.722 | 0.79 | 0.714 | 0.495 | 0.661 | 0.386 | 0.298 | 0.332 | 0.379 | 0.342 | 0.316 | 0.29 | 0.338 | 0.282 | 0.298 | 0.336 | 0.262
HARA | 1.13 | 1.17 | 1.16 | 1.2 | 0.575 | 0.771 | 0.499 | 0.841 | 0.616 | 0.352 | 0.307 | 0.272 | 0.196 | 0.195 | 0.165 | 0.3 | 0.488 | 0.459 | 0.326 | 0.244
LU99A | 0.785 | 0.716 | 0.773 | 0.546 | 0.426 | 0.279 | 0.231 | 0.251 | 0.201 | 0.2 | 0.382 | 0.379 | 0.304 | 0.217 | 0.237 | 0.293 | 0.278 | 0.374 | 0.296 | 0.251
NCI-H2087 | 1.01 | 1.09 | 1.1 | 0.767 | 0.991 | 0.757 | 0.675 | 0.586 | 0.542 | 0.259 | 0.261 | 0.169 | 0.207 | 0.195 | 0.142 | 0.801 | 0.847 | 1.01 | 0.827 | 0.659
NCI-H1734 | 0.835 | 0.758 | 0.794 | 0.714 | 0.47 | 0.656 | 0.597 | 0.599 | 0.566 | 0.401 | 0.396 | 0.369 | 0.356 | 0.311 | 0.255 | 0.472 | 0.427 | 0.494 | 0.397 | 0.343
HCC-44 | 0.949 | 0.983 | 1.04 | 0.802 | 0.735 | 1.06 | 1.01 | 1 | 1 | 0.716 | 0.904 | 0.945 | 0.955 | 0.929 | 0.877 | 0.669 | 0.654 | 0.822 | 0.491 | 0.441
